Where two headings read alike, the source gives them in different places. One block for each molecule: values may come before it.
Test system: Aβ1-42 production
Assay: Cellular assay for inhibition of Aβ1-42 production (H4 APP751 SWE clone 8.20)
Type: cell-based
Settings: H4 APP751 SWE clone 8.20 cells, 19 h incubation
Summary of the method: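 19 h cell treatment, 37 °C/5% CO2. Detection of secreted Aβ42 in the cell plate: 565 (Aβ42-specific, Wallac) and 26D6 (N-terminal, APC), overnight 4 °C. IC50 from fitted curves.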

[1] = read-out: Activity Rating (Aβ42 cellular IC50), numeric value
[2] = 19 h, class symbols, read-out: Activity Rating (Aβ42 cellular IC50)
[3] = 19 h, read-out: Activity Rating (Aβ42 cellular IC50), numeric value
[4] = class symbols, read-out: Activity Rating (Aβ42 cellular IC50)

SMILES: COc1cc(Nc2nc3c(c(N4CC(C)(OC)C4)n2)CCC3c2ccc(F)cc2)ccc1-n1cnc(C)n1 (centres unmarked) [Example 192, 7-(4-fluorophenyl)-4-(3-methoxy-3-methylazetidin-1-yl)-N-(3-methoxy-4-(3-methyl-1H-1,2,4-triazol-1-yl)phenyl)-6,7-dihydro-5H-cyclopenta[d]pyrimidin-2-amine]
IC50 [1]: 64 nM

SMILES: COc1cc(Nc2nc3c(c(N4CC(C)(OC)C4)n2)CCC3c2ccc(F)cc2)ccc1-n1cnc(C)n1 (centres unmarked) [Example 192A, 7-(4-fluorophenyl)-4-(3-methoxy-3-methylazetidin-1-yl)-N-(3-methoxy-4-(3-methyl-1H-1,2,4-triazol-1-yl)phenyl)-6,7-dihydro-5H-cyclopenta[d]pyrimidin-2-amine]
IC50 [1]: 170 nM

SMILES: COc1cc(Nc2nc3c(c(N4CC(C)(OC)C4)n2)CCC3c2ccc(F)cc2)ccc1-n1cnc(C)n1 (centres unmarked) [Example 192B, 7-(4-fluorophenyl)-4-(3-methoxy-3-methylazetidin-1-yl)-N-(3-methoxy-4-(3-methyl-1H-1,2,4-triazol-1-yl)phenyl)-6,7-dihydro-5H-cyclopenta[d]pyrimidin-2-amine]
IC50 [1]: 16 nM

SMILES: CNc1nc(Nc2ccc(-n3cnc(C)n3)c(OC)c2)nc2c1CCC2c1ccc(F)cc1F (centres unmarked) [Example 193, 7-(2,4-difluorophenyl)-N2-(3-methoxy-4-(3-methyl-1H-1,2,4-triazol-1-yl)phenyl)-N4-methyl-6,7-dihydro-5H-cyclopenta[d]pyrimidine-2,4-diamine]
IC50 [2]: 10 to 100 nM

SMILES: CCNc1nc(Nc2ccc(-n3ncnc3C)c(F)c2)nc2c1CN(CC(F)F)CC2c1ccccc1 (centres unmarked) [Example 194, 6-(2,2-difluoroethyl)-N4-ethyl-N2-(3-fluoro-4-(5-methyl-1H-1,2,4-triazol-1-yl)phenyl)-8-phenyl-5,6,7,8-tetrahydropyrido[4,3-d]pyrimidine-2,4-diamine]
IC50 [2]: 10 to 100 nM

SMILES: CCNc1nc(Nc2ccc(-n3ncnc3C)c(F)c2)nc2c1CN(CC(F)F)CC2c1ccccc1 (centres unmarked) [Example 194B, 6-(2,2-difluoroethyl)-N4-ethyl-N2-(3-fluoro-4-(5-methyl-1H-1,2,4-triazol-1-yl)phenyl)-8-phenyl-5,6,7,8-tetrahydropyrido[4,3-d]pyrimidine-2,4-diamine]
IC50 [3]: 175 nM

SMILES: CCNc1nc(Nc2ccc(-n3cnc(C)n3)c(F)c2)nc2c1CN(CC(F)F)CC2c1ccccc1 (centres unmarked) [Example 195, 6-(2,2-difluoroethyl)-N4-ethyl-N2-(3-fluoro-4-(3-methyl-1H-1,2,4-triazol-1-yl)phenyl)-8-phenyl-5,6,7,8-tetrahydropyrido[4,3-d]pyrimidine-2,4-diamine]
IC50 [3]: 17 nM

SMILES: CCNc1nc(Nc2ccc(-n3cnc(C)n3)c(F)c2)nc2c1CN(CC(F)F)CC2c1ccccc1 (centres unmarked) [Example 195A, 6-(2,2-difluoroethyl)-N4-ethyl-N2-(3-fluoro-4-(3-methyl-1H-1,2,4-triazol-1-yl)phenyl)-8-phenyl-5,6,7,8-tetrahydropyrido[4,3-d]pyrimidine-2,4-diamine]
IC50 [1]: 26 nM

SMILES: CCNc1nc(Nc2ccc(-n3cnc(C)n3)c(F)c2)nc2c1CN(CC(F)F)CC2c1ccccc1 (centres unmarked) [Example 195B, 6-(2,2-difluoroethyl)-N4-ethyl-N2-(3-fluoro-4-(3-methyl-1H-1,2,4-triazol-1-yl)phenyl)-8-phenyl-5,6,7,8-tetrahydropyrido[4,3-d]pyrimidine-2,4-diamine]
IC50 [2]: 100 to 1000 nM

SMILES: CCNc1nc(Nc2ccc(-n3cnc(Cl)c3)c(OC)c2)nc2c1CN(CC(F)(F)F)CC2c1ccccc1 (centres unmarked) [Example 196A]
IC50 [4]: 1.5 to 9.9 nM

SMILES: CCNc1nc(Nc2ccc(-n3cnc(Cl)c3)c(OC)c2)nc2c1CN(CC(F)(F)F)CC2c1ccccc1 (centres unmarked) [Example 196B]
IC50 [3]: 54 nM

SMILES: CCNc1nc(Nc2ccc(-n3cnc(Cl)c3)c(OC)c2)nc2c1CN(CC(F)(F)F)CC2c1ccccc1 (centres unmarked) [Example 196]
IC50 [4]: 10 to 100 nM

SMILES: CCNc1nc(Nc2ccc(-n3cnc(Cl)c3)c(OC)c2)nc2c1CN(CC(F)F)CC2c1ccccc1 (centres unmarked) [Example 197, N4-ethyl-N2-(3-methoxy-4-(4-chloro-1H-13-imidazol-1-yl)phenyl)-8-phenyl-6-(2,2-difluoroethyl)-5,6,7,8-tetrahydropyrido[4,3-d]pyrimidine-2,4-diamine]
IC50 [1]: 16 nM

SMILES: CCNc1nc(Nc2ccc(-n3cnc(Cl)c3)c(OC)c2)nc2c1CN(CC(F)F)CC2c1ccccc1 (centres unmarked) [Example 197A, N4-ethyl-N2-(3-methoxy-4-(4-chloro-1H-13-imidazol-1-yl)phenyl)-8-phenyl-6-(2,2-difluoroethyl)-5,6,7,8-tetrahydropyrido[4,3-d]pyrimidine-2,4-diamine]
IC50 [1]: 60 nM

SMILES: CCNc1nc(Nc2ccc(-n3cnc(Cl)c3)c(OC)c2)nc2c1CN(CC(F)F)CC2c1ccccc1 (centres unmarked) [Example 197B, N4-ethyl-N2-(3-methoxy-4-(4-chloro-1H-13-imidazol-1-yl)phenyl)-8-phenyl-6-(2,2-difluoroethyl)-5,6,7,8-tetrahydropyrido[4,3-d]pyrimidine-2,4-diamine]
IC50 [2]: 1.5 to 9.9 nM

Other lines, results leading:

IC50 [4]: 10 to 100 nM
SMILES: CNc1nc(Nc2ccc(-n3cnc(C)n3)c(OC)c2)nc2c1CN(C)CC2c1ccc(F)cc1 (centres unmarked) [Example 198, 8-(4-fluorophenyl)-N2-(3-methoxy-4-(3-methyl-1H-1,2,4-triazol-1-yl)phenyl)-N4,6-dimethyl-5,6,7,8-tetrahydropyrido[4,3-d]pyrimidine-2,4-diamine]

IC50 [3]: 15 nM
SMILES: CNc1nc(Nc2ccc(-n3cnc(C)n3)c(OC)c2)nc2c1CN(C)CC2c1ccc(F)cc1 (centres unmarked) [Example 198B, 8-(4-fluorophenyl)-N2-(3-methoxy-4-(3-methyl-1H-1,2,4-triazol-1-yl)phenyl)-N4,6-dimethyl-5,6,7,8-tetrahydropyrido[4,3-d]pyrimidine-2,4-diamine]

IC50 [4]: 10 to 100 nM
SMILES: CNc1nc(Nc2ccc(-n3ncnc3C)c(OC)c2)nc2c1CN(C)CC2c1ccc(F)cc1 (centres unmarked) [Example 199, 8-(4-fluorophenyl)-N2-(3-methoxy-4-(5-methyl-1H-1,2,4-triazol-1-yl)phenyl)-N4,6-dimethyl-5,6,7,8-tetrahydropyrido[4,3-d]pyrimidine-2,4-diamine]

IC50 [4]: 100 to 1000 nM
SMILES: CNc1nc(Nc2ccc(-n3ncnc3C)c(OC)c2)nc2c1CN(C)CC2c1ccc(F)cc1 (centres unmarked) [Example 199A, 8-(4-fluorophenyl)-N2-(3-methoxy-4-(5-methyl-1H-1,2,4-triazol-1-yl)phenyl)-N4,6-dimethyl-5,6,7,8-tetrahydropyrido[4,3-d]pyrimidine-2,4-diamine]

IC50 [4]: 1.5 to 9.9 nM
SMILES: CNc1nc(Nc2ccc(-n3ncnc3C)c(OC)c2)nc2c1CN(C)CC2c1ccc(F)cc1 (centres unmarked) [Example 199B, 8-(4-fluorophenyl)-N2-(3-methoxy-4-(5-methyl-1H-1,2,4-triazol-1-yl)phenyl)-N4,6-dimethyl-5,6,7,8-tetrahydropyrido[4,3-d]pyrimidine-2,4-diamine]

IC50 [3]: 5.3 nM
SMILES: CNc1nc(Nc2ccc(-n3cnc(Cl)c3)c(OC)c2)nc2c1/C(=N/OC)CC2c1ccccc1 (centres unmarked) [Example 201, (E)-2-(4-(4-chloro-1H-imidazol-1-yl)-3-methoxyphenylamino)-4-(methylamino)-7-phenyl-6,7-dihydro-5H-cyclopenta[d]pyrimidin-5-one O-methyl oxime]

IC50 [1]: 10 nM
SMILES: CNc1nc(Nc2ccc(-n3cnc(Cl)c3)c(OC)c2)nc2c1/C(=N/OC)CC2c1ccccc1 (centres unmarked) [Example 201A, (E)-2-(4-(4-chloro-1H-imidazol-1-yl)-3-methoxyphenylamino)-4-(methylamino)-7-phenyl-6,7-dihydro-5H-cyclopenta[d]pyrimidin-5-one O-methyl oxime]

IC50 [2]: 10 to 100 nM
SMILES: CNc1nc(Nc2ccc(-n3cnc(Cl)c3)c(OC)c2)nc2c1/C(=N/OC)CC2c1ccccc1 (centres unmarked) [Example 201B, (E)-2-(4-(4-chloro-1H-imidazol-1-yl)-3-methoxyphenylamino)-4-(methylamino)-7-phenyl-6,7-dihydro-5H-cyclopenta[d]pyrimidin-5-one O-methyl oxime]

IC50 [2]: 1.5 to 9.9 nM
SMILES: CNc1nc(Nc2ccc(-n3cnc(Cl)c3)c(OC)c2)nc2c1C(O)CC2c1ccccc1 (centres unmarked) [Example 202, 2-(4-(4-chloro-1H-imidazol-1-yl)-3-methoxyphenylamino)-4-(methylamino)-7-phenyl-6,7-dihydro-5H-cyclopenta[d]pyrimidin-5-ol]

IC50 [3]: 19 nM
SMILES: CNc1nc(Nc2ccc(-n3cnc(Cl)c3)c(OC)c2)nc2c1CCCC2c1ccccc1 (centres unmarked) [Example 203, N2-(4-(4-chloro-1H-imidazol-1-yl)-3-methoxyphenyl)-N4-methyl-8-phenyl-5,6,7,8-tetrahydroquinazoline-2,4-diamine]

IC50 [4]: 1.5 to 9.9 nM
SMILES: CNc1nc(Nc2ccc(-n3cnc(Cl)c3)c(OC)c2)nc2c1CCCC2c1ccccc1 (centres unmarked) [Example 203A, N2-(4-(4-chloro-1H-imidazol-1-yl)-3-methoxyphenyl)-N4-methyl-8-phenyl-5,6,7,8-tetrahydroquinazoline-2,4-diamine]

IC50 [4]: 10 to 100 nM
SMILES: CNc1nc(Nc2ccc(-n3cnc(Cl)c3)c(OC)c2)nc2c1CCCC2c1ccccc1 (centres unmarked) [Example 203B, N2-(4-(4-chloro-1H-imidazol-1-yl)-3-methoxyphenyl)-N4-methyl-8-phenyl-5,6,7,8-tetrahydroquinazoline-2,4-diamine]

IC50 [3]: 19 nM
SMILES: CNc1nc(Nc2ccc(-n3cnc(C#N)c3)c(OC)c2)nc2c1CCC2c1ccccc1 (centres unmarked) [Example 204, 1-(2-methoxy-4-(4-(methylamino)-7-phenyl-6,7-dihydro-5H-cyclopenta[d]pyrimidin-2-ylamino)phenyl)-1H-imidazole-4-carbonitrile]

IC50 [2]: 100 to 1000 nM
SMILES: CNc1nc(Nc2ccc(-n3cnc(C#N)c3)c(OC)c2)nc2c1CCC2c1ccccc1 (centres unmarked) [Example 204B, 1-(2-methoxy-4-(4-(methylamino)-7-phenyl-6,7-dihydro-5H-cyclopenta[d]pyrimidin-2-ylamino)phenyl)-1H-imidazole-4-carbonitrile]

Source: patent US8637525B2, “Compounds for the reduction of beta-amyloid production” (Bristol-Myers Squibb Company, priority 2009, dated 2014)
